Marks after values point to notes of the source that are not given here. One block for each compound: values may come before it.
What was measured:
[1] = Safety assay (body weight, tolerability) in Ba/F3 KIF5B-RET^G810R cell line tumor model; assay type: in vivo; conditions: for Number of animals at the beginning/end of assay: 25 mg/kg p.o. QD × 13; for Average weight g (x ± S), Day 0 of administration: 25 mg/kg p.o. QD × 13, day 0 (baseline); for Average weight g (x ± S), Day 13 of administration / Weight change rate (%), Day 13 of administration: 25 mg/kg p.o. QD × 13, day 13; for tolerability (weight loss, drug withdrawal, drug toxicity): during the treatment
Experimental: (§1) Assay methods: 1) Ba/F3 KIF5B-RET and Ba/F3 KIF5B-RET^G810R cells were respectively resuscitated and Cultured in vitro, and 3×10^7 cells of each type were obtained. 2) 60 female NPSG mice aged 6-8 weeks were adaptively bred for 1 week and then weighed. 4) After inoculation, tumor volume and body weight were measured once a week. When average tumor volume reached about […], mice inoculated with each type of Ba/F3 cells were randomly divided into 7 groups according to tumor volume and body weight, with 3 mice in each group. The administration was started immediately after grouping. The date of start of administration was regarded as day 0. Informations on administration and grouping were shown in Tables 5 and 6.5) After the start of the administration, the body weight and tumor volume of mice were measured twice a week. 6) After the end of the administration, the assay was over.
(§2) Assay observation and data collection: After tumor inoculation, morbidity and death of animals were observed every working day. Daily observation included tumor growth and effects of drugs on laboratory animals, such as changes in activity, changes in feeding and drinking, weight loss, changes in appearance of hair and eye, death and other clinical symptoms. Formula for calculating tumor volume is: tumor volume (mm^3)=½×(a×b^2) (wherein a represents the long diameter and b represents the short diameter)

[2] = Safety assay (body weight, tolerability) in Ba/F3 KIF5B-RET cell line tumor model; assay type: in vivo; conditions: for Number of animals at the beginning/end of assay: 10 mg/kg p.o. QD × 14; for Average weight g (x ± S), Day 0 of administration: 10 mg/kg p.o. QD × 14, day 0 (baseline); for Average weight g (x ± S), Day 14 of administration / Weight change rate (%), Day 14 of administration: 10 mg/kg p.o. QD × 14, day 14; for tolerability (weight loss, drug withdrawal, drug toxicity): during the treatment
Experimental: as §1, §2

[3] = tested on: Ba/F3 KIF5B-RET^G810R cell line tumor model; assay: Anti-tumor effect assay in Ba/F3 KIF5B-RET^G810R cell line tumor model (allograft); assay type: in vivo, female NPSG mice; conditions: for Tumor volume (x ± S), Day 0 of administration / Tumor volume (x ± S), Day 13 of administration / TGI (%), Day 13 of administration: Ba/F3 KIF5B-RET^G810R model; for Tumor volume (x ± S), Day 0 of administration: 25 mg/kg p.o. QD × 13, day 0 (baseline); for Tumor volume (x ± S), Day 13 of administration / TGI (%), Day 13 of administration: 25 mg/kg p.o. QD × 13, day 13; for TGI (%), Day 13 of administration: TGI more than 100% = decrease in tumor volume; for relative tumor inhibition rate TGI (%): day 13 of administration, AD80 group 25 mg/kg
From the text: (§3) The efficacy of compounds of the present disclosure in female NPSG mouse allograft models of two B-cell lymphoma cell lines Ba/F3 KIF5B-RET and Ba/F3 KIF5B-RET^G810R was verified.
(§4) Assay animals: Female NPSG mice, 6-8 weeks old (age of mice at the time of tumor cell inoculation), weighing 18-20 g, 60 mice, purchased from Shanghai Jihui Laboratory Animal Care Co., Ltd.
as §1, §2
(§5) Relative tumor inhibition rate TGI (%): TGI %=(1−T/C)×100%. T/C % is relative tumor proliferation rate, that is, a percentage value of relative tumor volume between treatment group and control group at a certain point in time. T and C are relative tumor volume (RTV, that is, the […] tumor volume at this time point and tumor volume at day 0) of treatment group and control group at a certain point in time, respectively.
(§6) Statistical analysis: For pairwise comparison, a T-Test analysis method was used, and for comparison of three or more groups, a One-Way ANOVA method was used. For comparison of potential synergistic effects, a Two-way ANOVA was used. SPSS 24.0 was used for all data. A p value less than 0.05 was considered a significant difference.

[4] = tested on: Ba/F3 KIF5B-RET cell line tumor model; assay: Anti-tumor effect assay in Ba/F3 KIF5B-RET cell line tumor model (allograft); assay type: in vivo, female NPSG mice; conditions: for Tumor volume (x ± S), Day 0 of administration: 10 mg/kg p.o. QD × 14, day 0 (baseline); for TGI (%), Day 14 of administration / Tumor volume (x ± S), Day 14 of administration: 10 mg/kg p.o. QD × 14, day 14
From the text: as §3, §4, §1, §2, §5, §6

[5] = target: T1, RET V804M (Homo sapiens, UniProt P07949, V804M); assay: Inhibition of kinase, RET V804M (HTRF KinEASE-TK); assay type: biochemical
T1 construct: purchased Signalchem R02—12GG
T1 sequence (P07949 29-1114 V804M): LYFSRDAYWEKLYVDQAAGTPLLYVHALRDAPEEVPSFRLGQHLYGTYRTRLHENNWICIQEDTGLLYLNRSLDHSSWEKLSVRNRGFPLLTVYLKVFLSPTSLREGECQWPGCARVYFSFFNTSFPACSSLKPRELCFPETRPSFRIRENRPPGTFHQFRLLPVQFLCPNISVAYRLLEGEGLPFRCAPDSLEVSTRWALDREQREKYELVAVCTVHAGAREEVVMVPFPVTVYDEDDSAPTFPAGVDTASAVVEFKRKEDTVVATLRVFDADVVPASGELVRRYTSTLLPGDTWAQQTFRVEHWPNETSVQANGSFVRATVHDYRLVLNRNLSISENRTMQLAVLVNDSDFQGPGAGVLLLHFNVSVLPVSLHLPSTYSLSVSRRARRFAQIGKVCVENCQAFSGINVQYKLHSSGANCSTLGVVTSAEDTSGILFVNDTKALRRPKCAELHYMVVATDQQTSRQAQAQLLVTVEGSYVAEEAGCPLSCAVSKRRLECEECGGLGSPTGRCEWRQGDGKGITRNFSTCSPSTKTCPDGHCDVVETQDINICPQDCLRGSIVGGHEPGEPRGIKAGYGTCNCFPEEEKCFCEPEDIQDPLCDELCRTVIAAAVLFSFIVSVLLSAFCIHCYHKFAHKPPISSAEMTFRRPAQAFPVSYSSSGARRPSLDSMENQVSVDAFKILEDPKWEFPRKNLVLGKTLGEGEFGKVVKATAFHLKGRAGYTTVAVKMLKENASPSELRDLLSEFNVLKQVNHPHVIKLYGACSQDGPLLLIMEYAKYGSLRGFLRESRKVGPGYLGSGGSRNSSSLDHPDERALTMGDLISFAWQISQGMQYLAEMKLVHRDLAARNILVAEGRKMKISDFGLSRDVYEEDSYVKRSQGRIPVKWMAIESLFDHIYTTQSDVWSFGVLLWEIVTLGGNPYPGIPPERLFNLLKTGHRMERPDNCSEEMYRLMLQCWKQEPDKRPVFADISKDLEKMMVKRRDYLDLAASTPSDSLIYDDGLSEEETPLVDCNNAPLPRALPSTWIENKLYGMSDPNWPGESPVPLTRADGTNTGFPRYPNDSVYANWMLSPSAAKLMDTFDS
Experimental: (§7) Ret wt (Carna, Cat. No. 08-159-10 ug), RET (V804M), Active (Signalchem. Cat. No. R02—12GG), HTRF KinEASE-TK kit (Cisbio, Cat. No.62TK0PEC), CEP-32496 (MCE, Cat. No. HY-15200), ATP (Sigma. Cat. No. A7699), DMSO (Sigma, Cat. No. D8418-1L), DTT (Sigma, Cat. No. D0632), MgCl2(Sigma, Cat. No. M1028), 384-well plate (Labcyte, Cat. No. P-05525-BC).
(§8) Formulation of compound: The test compounds were dissolved in DMSO to obtain 10 mM stock solutions, which were then serially diluted 3-fold in DMSO to obtain 10 concentrations. At the time of addition, the compound was further diluted 10-fold with buffer.
(§9) In 5×kinase buffer A, Ret wt or RET V804M kinase was mixed with different concentrations of compounds prepared by pre-dilution for 10 minutes. Each concentration was tested in duplicate. The corresponding substrate and ATP were added, and reaction was performed at room temperature for 20 minutes (negative and positive controls were provided: the negative control was a blank control, and the positive control was CEP-32496 (Agerafenib)). After completion of the reaction, detection reagents (reagents in the HTRF KinEASE-TK kit) were added. After incubating for 30 minutes at room temperature, enzyme activity in the presence of various concentrations of the compounds of the present disclosure was determined by Envision microplate reader, and inhibitory activity of different concentrations of the compounds on enzyme activity was calculated. The inhibitory activity of different concentrations of the compounds on enzyme activity was fitted by Graphpad 5.0 software, and the IC50 value was calculated.

[6] = target: T2, Ret wt (Homo sapiens, UniProt P07949); assay: Inhibition of kinase, Ret wt (HTRF KinEASE-TK); assay type: biochemical
T2 construct: purchased Carna 08-159-10 ug
T2 sequence (P07949 29-1114): as the sequence (P07949 29-1114 V804M) above, with M776V counted along it
Experimental: as §7, §8, §9

Compound: CC(C)n1nc(-c2ccc(NC(=O)Nc3cc(C(F)(F)F)ccc3F)cc2)c2c(N)ncnc21 [AD80, reference compound]
Number of animals at the beginning/end of assay [1]: 3/3 | Average weight g (x ± S), Day 0 of administration [1]: 19.9 ± 0.44 g | Average weight g (x ± S), Day 13 of administration [1]: 20.7 ± 1.53 g | Weight change rate (%), Day 13 of administration [1]: 4.14% | tolerability (weight loss, drug withdrawal, drug toxicity) [1]: well tolerated | Number of animals at the beginning/end of assay [2]: 3/3 | Average weight g (x ± S), Day 0 of administration [2]: 20.1 ± 0.81 g | Average weight g (x ± S), Day 14 of administration [2]: 22.6 ± 0.87 g | Weight change rate (%), Day 14 of administration [2]: 12.7% | tolerability (weight loss, drug withdrawal, drug toxicity) [2]: well tolerated | Tumor volume (x ± S), Day 0 of administration [3]: 94.7 ± 5.24 mm^3 | Tumor volume (x ± S), Day 13 of administration [3]: 185.7 ± 33.65 mm^3 | TGI (%), Day 13 of administration [3]: 75.2% | relative tumor inhibition rate TGI (%) [3]: 75.2% | Tumor volume (x ± S), Day 0 of administration [4]: 100.3 ± 4.33 mm^3 | TGI (%), Day 14 of administration [4]: 46.4% | Tumor volume (x ± S), Day 14 of administration [4]: 821.7 ± 54.5 mm^3

Compound: CC(C)n1nc(-c2ccc(CC(=O)Nc3cc(C(C)(C)C(F)(F)F)on3)cc2)c2c(N)ncnc21 [Compound T-1, 2-(4-(4-amino-1-isopropyl-1H-pyrazolo[3,4-d]pyrimidin-3-yl)phenyl)-N-(5-(1,1,1-trifluoro-2-methylprop-2-yl)isoxazol-3-yl)acetamide]
Number of animals at the beginning/end of assay [1]: 3/3 | Average weight g (x ± S), Day 0 of administration [1]: 20.3 ± 1.32 g | Average weight g (x ± S), Day 13 of administration [1]: 21.3 ± 1.19 g | Weight change rate (%), Day 13 of administration [1]: 4.90% | tolerability (weight loss, drug withdrawal, drug toxicity) [1]: well tolerated | IC50 [5]: ≤ 500 pM | Number of animals at the beginning/end of assay [2]: 3/3 | Average weight g (x ± S), Day 0 of administration [2]: 20.9 ± 1.06 g | Average weight g (x ± S), Day 14 of administration [2]: 21.6 ± 1.05 g | Weight change rate (%), Day 14 of administration [2]: 3.4% | tolerability (weight loss, drug withdrawal, drug toxicity) [2]: well tolerated | Tumor volume (x ± S), Day 0 of administration [3]: 98 ± 3.61 mm^3 | Tumor volume (x ± S), Day 13 of administration [3]: 63.7 ± 16.19 mm^3 | TGI (%), Day 13 of administration [3]: 109.4%# | relative tumor inhibition rate TGI (%) [3]: 109.4% | IC50 [6]: ≤ 500 pM | Tumor volume (x ± S), Day 0 of administration [4]: 102.7 ± 6.06 mm^3 | TGI (%), Day 14 of administration [4]: 90.3% | Tumor volume (x ± S), Day 14 of administration [4]: 233 ± 65.74 mm^3

Compound: CC(C)n1nc(-c2ccc(NC(=O)Nc3cc(C(C)(C)C(F)(F)F)on3)cc2)c2c(N)ncnc21 [Compound T-2, 1-(4-(4-amino-1-isopropyl-1H-pyrazolo[3,4-d]pyrimidin-3-yl)phenyl)-3-(5-(1,1,1-trifluoro-2-methylprop-2-yl)isoxazol-3-yl)urea]
Number of animals at the beginning/end of assay [1]: 3/3 | Average weight g (x ± S), Day 0 of administration [1]: 19.6 ± 0.47 g | Average weight g (x ± S), Day 13 of administration [1]: 21.7 ± 0.74 g | Weight change rate (%), Day 13 of administration [1]: 11.05% | tolerability (weight loss, drug withdrawal, drug toxicity) [1]: well tolerated | IC50 [5]: 1000 to 10000 pM | Number of animals at the beginning/end of assay [2]: 3/3 | Average weight g (x ± S), Day 0 of administration [2]: 20.1 ± 0.56 g | Average weight g (x ± S), Day 14 of administration [2]: 21.7 ± 0.59 g | Weight change rate (%), Day 14 of administration [2]: 8.1% | tolerability (weight loss, drug withdrawal, drug toxicity) [2]: well tolerated | Tumor volume (x ± S), Day 0 of administration [3]: 94.3 ± 3.84 mm^3 | Tumor volume (x ± S), Day 13 of administration [3]: 150.7 ± 4.33 mm^3 | TGI (%), Day 13 of administration [3]: 84.6% | relative tumor inhibition rate TGI (%) [3]: 84.6% | IC50 [6]: ≤ 500 pM | Tumor volume (x ± S), Day 0 of administration [4]: 102 ± 5.51 mm^3 | TGI (%), Day 14 of administration [4]: 63.9% | Tumor volume (x ± S), Day 14 of administration [4]: 588.7 ± 25.3 mm^3

IC50 [5]: 1000 to 10000 pM | IC50 [6]: ≤ 500 pM
Compound: CC(C)c1nc(-c2ccc(CC(=O)Nc3cc(C(C)(C)C(F)(F)F)on3)cc2)c2c(N)nccn12 [Compound T-4, 2-(4-(8-amino-3-isopropylimidazo[1,5-a]pyrazin-1-yl)phenyl)-N-(5-(1,1,1-trifluoro-2-methylprop-2-yl)isoxazol-3-yl)acetamide]
